Data published in the Kinase Knowledgebase extract (Sharma et al. 2016).

What was measured:
[1] = target: EGFR (human), P00533 [L858R]
[2] = target: EGFR (Human), P00533 [Assessment of EGFR-Del T790M Dependent Cell Proliferation in BaF3 Cells]
EGFR (human) = EGFR (human) (UniProt P00533)
[3] = target: EGFR (Human), P00533 [T790M/L858R]
[4] = target: EGFR (Human), P00533 [T790M/L858R]; details: baf3

EGFR (human), sequence (P00533 whole entry, looked up): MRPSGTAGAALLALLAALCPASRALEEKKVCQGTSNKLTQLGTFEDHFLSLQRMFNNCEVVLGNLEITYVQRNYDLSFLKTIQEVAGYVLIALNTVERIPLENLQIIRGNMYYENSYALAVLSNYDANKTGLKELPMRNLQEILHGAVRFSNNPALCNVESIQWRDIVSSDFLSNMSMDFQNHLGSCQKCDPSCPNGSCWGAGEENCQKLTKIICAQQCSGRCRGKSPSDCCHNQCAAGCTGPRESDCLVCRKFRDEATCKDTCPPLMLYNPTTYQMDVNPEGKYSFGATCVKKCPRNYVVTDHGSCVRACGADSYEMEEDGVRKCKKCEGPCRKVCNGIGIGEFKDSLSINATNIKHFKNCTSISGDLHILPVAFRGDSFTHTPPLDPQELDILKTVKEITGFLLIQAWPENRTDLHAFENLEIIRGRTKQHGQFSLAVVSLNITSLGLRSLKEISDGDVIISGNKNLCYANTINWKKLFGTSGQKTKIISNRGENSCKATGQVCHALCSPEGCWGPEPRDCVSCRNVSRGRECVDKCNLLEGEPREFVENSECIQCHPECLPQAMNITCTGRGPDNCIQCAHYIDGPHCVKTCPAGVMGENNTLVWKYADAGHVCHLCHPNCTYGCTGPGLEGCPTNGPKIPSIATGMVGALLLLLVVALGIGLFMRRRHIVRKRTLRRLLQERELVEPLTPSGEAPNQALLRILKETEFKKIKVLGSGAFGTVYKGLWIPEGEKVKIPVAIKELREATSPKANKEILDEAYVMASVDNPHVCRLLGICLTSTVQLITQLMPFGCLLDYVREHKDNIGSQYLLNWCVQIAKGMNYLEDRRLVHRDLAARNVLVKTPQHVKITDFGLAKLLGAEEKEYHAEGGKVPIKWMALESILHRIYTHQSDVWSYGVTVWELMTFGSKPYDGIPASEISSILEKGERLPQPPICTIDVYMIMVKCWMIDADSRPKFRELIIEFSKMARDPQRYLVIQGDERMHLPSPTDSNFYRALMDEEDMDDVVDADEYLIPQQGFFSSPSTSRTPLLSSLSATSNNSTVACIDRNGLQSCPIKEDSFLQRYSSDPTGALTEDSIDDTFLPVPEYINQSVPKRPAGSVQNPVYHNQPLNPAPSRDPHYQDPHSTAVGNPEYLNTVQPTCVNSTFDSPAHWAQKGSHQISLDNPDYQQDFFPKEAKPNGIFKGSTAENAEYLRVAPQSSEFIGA
EGFR (Human), P00533 [Assessment of EGFR-Del T790M Dependent Cell Proliferation in BaF3 Cells], sequence (P00533 whole entry, looked up, stated change not applied): as the sequence (P00533 whole entry, looked up) above
EGFR (Human), P00533 [T790M/L858R], sequence (P00533 whole entry T790M/L858R, looked up): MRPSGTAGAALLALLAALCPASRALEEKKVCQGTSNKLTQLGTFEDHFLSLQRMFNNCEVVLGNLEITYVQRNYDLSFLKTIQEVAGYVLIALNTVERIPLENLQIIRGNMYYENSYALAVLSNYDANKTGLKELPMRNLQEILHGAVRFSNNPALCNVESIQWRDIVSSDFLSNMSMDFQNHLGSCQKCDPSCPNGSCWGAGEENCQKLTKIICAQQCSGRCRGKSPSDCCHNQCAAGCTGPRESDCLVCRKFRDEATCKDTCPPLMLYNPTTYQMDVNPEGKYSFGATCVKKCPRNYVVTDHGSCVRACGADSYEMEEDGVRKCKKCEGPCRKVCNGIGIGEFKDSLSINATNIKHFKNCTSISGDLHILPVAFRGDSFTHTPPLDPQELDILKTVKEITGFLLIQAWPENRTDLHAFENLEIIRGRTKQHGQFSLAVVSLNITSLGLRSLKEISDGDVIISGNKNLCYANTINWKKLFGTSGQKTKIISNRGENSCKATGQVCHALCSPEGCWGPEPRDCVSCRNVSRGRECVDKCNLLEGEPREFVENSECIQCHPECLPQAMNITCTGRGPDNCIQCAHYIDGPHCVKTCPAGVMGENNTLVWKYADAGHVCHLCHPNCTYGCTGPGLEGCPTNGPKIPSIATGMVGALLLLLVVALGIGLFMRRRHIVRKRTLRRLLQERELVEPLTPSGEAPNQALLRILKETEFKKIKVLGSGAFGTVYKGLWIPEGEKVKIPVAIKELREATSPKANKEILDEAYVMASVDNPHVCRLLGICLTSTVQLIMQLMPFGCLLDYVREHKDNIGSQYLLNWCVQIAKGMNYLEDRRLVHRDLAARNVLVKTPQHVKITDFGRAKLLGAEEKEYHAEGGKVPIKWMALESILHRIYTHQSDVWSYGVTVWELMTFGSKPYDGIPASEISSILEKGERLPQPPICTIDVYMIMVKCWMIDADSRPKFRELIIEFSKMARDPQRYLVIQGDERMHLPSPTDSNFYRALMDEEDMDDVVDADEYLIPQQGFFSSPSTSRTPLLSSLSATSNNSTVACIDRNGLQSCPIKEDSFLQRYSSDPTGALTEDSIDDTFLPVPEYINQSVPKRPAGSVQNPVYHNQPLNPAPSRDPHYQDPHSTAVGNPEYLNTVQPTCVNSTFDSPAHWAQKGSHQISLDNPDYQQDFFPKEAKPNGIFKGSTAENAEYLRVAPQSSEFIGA
EGFR (human), P00533 [L858R], sequence (P00533 whole entry L858R, looked up): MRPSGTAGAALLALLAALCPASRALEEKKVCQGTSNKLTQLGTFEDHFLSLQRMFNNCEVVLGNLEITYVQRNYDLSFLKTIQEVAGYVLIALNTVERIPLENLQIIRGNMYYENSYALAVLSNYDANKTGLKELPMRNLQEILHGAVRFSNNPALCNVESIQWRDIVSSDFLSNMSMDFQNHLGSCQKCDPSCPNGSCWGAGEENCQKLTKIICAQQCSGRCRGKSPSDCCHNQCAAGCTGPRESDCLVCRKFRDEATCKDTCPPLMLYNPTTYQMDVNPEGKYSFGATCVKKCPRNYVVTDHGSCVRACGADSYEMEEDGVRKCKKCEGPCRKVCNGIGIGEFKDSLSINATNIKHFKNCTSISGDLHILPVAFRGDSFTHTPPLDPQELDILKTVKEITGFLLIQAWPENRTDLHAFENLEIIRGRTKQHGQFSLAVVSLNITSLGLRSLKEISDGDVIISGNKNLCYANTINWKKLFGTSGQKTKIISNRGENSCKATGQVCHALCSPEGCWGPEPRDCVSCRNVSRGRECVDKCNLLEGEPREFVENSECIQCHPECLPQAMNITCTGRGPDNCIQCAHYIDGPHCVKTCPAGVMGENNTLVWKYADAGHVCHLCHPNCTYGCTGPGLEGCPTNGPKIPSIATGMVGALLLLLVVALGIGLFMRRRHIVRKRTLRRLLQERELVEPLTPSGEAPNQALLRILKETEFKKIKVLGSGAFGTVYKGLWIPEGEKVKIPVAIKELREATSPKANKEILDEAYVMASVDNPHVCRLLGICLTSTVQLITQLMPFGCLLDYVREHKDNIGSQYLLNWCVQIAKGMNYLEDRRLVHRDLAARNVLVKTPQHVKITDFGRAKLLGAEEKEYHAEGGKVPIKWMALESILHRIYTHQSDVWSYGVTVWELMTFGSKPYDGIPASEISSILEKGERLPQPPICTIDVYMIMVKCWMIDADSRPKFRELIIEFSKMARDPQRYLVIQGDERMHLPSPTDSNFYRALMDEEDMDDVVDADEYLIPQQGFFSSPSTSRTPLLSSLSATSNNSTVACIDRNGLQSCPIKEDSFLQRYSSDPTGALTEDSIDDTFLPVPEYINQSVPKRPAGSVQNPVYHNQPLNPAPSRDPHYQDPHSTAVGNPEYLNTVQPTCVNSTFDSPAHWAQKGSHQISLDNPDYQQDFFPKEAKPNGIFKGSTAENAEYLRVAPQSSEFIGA

| SMILES | IC50 [1] | IC50 [2] | IC50 (EGFR (human)) | IC50 [3] | IC50 [4] |
| --- | --- | --- | --- | --- | --- |
| C=CC(=O)Nc1cc(Nc2ncc(Cl)c(Nc3ccccc3P(C)(C)=O)n2)c(OC)cc1N1CCC(N2CCCCC2)C1 (stereo not given) | < 50 nM | < 50 nM | < 50 nM | < 50 nM | < 50 nM |
| C=CC(=O)Nc1cc(Nc2ncc(Cl)c(Nc3ccccc3P(C)(C)=O)n2)c(OC)cc1N1CCC(N2CCCN(C)CC2)CC1 | < 50 nM | 50 to 100 nM | < 50 nM | < 50 nM | 101 to 250 nM |
| C=CC(=O)Nc1cc(Nc2ncc(Cl)c(Nc3ccccc3P(C)(C)=O)n2)c(OC)cc1C#CCN(C(C)C)C(C)C | < 50 nM | < 50 nM | < 50 nM | < 50 nM | < 50 nM |
| COc1cc(C)c(NC(=O)CCl)cc1Nc1ncc(C)c(Nc2ccccc2P(C)(C)=O)n1 | < 50 nM | < 50 nM | < 50 nM | < 50 nM | < 50 nM |
| C=CC(=O)Nc1cc(Nc2ncc(Cl)c(Nc3ccccc3P(C)(C)=O)n2)c(OC)cc1C#CCN1CCCCCC1 | < 50 nM | < 50 nM | < 50 nM | < 50 nM | < 50 nM |
| C=CC(=O)Nc1cc(Nc2ncc(Cl)c(Nc3ccccc3P(C)(C)=O)n2)c(OC)cc1C#CCN(C)C | < 50 nM | < 50 nM | < 50 nM | < 50 nM | < 50 nM |
| C=CC(=O)Nc1cc(Nc2ncc(Cl)c(Nc3ccccc3P(C)(C)=O)n2)c(OC)cc1C#CCN1CCN(C)CC1 | < 50 nM | < 50 nM | < 50 nM | < 50 nM | 101 to 250 nM |
| C=CC(=O)Nc1ccc(OC(F)(F)F)c(Nc2ncc(Cl)c(Nc3ccccc3P(C)(C)=O)n2)c1 | < 50 nM | < 50 nM | < 50 nM | < 50 nM | < 50 nM |
| COCC#CC(=O)Nc1ccc(OC)c(Nc2ncc(Cl)c(Nc3ccccc3P(C)(C)=O)n2)c1 | < 50 nM | < 50 nM | < 50 nM | < 50 nM | < 50 nM |
| C=CC(=O)Nc1cc(Nc2ncc(Cl)c(Nc3ccccc3P(C)(C)=O)n2)c(OC)cc1OC(COC)CN(C)C (stereo not given) | < 50 nM | < 50 nM | < 50 nM | < 50 nM | < 50 nM |
| C=CC(=O)Nc1ccc(OC)c(Nc2ncc(Cl)c(Nc3ccc(OCCCN(C)C)cc3P(C)(C)=O)n2)c1 | < 50 nM | < 50 nM | < 50 nM | < 50 nM | < 50 nM |
| C=CC(=O)Nc1cc(Nc2ncc(Cl)c(Nc3ccccc3P(C)(C)=O)n2)c(OC)cc1C#CCN1CCCC1 | < 50 nM | < 50 nM | < 50 nM | < 50 nM | < 50 nM |
| C=CC(=O)Nc1cc(Nc2ncc(Cl)c(Nc3ccccc3P(C)(C)=O)n2)c(OC)cc1C#CCNC | < 50 nM | < 50 nM | < 50 nM | < 50 nM | < 50 nM |
| COc1cc(N2CCOCC2)c(NC(=O)C#CCCN(C)C)cc1Nc1ncc(Cl)c(Nc2ccccc2P(C)(C)=O)n1 | < 50 nM | < 50 nM | < 50 nM | < 50 nM | < 50 nM |
| C=CC(=O)Nc1cc(Nc2ncc(Cl)c(Nc3ccccc3P(C)(C)=O)n2)c(OC)cc1C#CCN(C)CC | < 50 nM | < 50 nM | < 50 nM | < 50 nM | < 50 nM |
| C=CC(=O)Nc1cc(Nc2ncc(Cl)c(Nc3ccccc3P(C)(C)=O)n2)c(OC)cc1C#CC(C)(C)N(C)C | < 50 nM | < 50 nM | < 50 nM | < 50 nM | < 50 nM |
| C=CC(=O)Nc1ccc(OC)c(Nc2ncc(Cl)c(Nc3ccc(OCC4CCOCC4)cc3P(C)(C)=O)n2)c1 | < 50 nM | < 50 nM | 50 to 100 nM | < 50 nM | < 50 nM |
| C=CC(=O)Nc1cc(Nc2ncc(Cl)c(Nc3ccccc3P(C)(C)=O)n2)c(OC)cc1N1CCC(N2CCCC2)CC1 | < 50 nM | < 50 nM | 50 to 100 nM | < 50 nM | 101 to 250 nM |
| COc1ccc(NC(=O)C#CCN(C)C)cc1Nc1ncc(Cl)c(Nc2ccccc2P(C)(C)=O)n1 | < 50 nM | < 50 nM | < 50 nM | < 50 nM | < 50 nM |
| C=CC(=O)Nc1cc(Nc2ncc(Cl)c(Nc3ccccc3P(C)(C)=O)n2)c(OC)cc1C#CCN(C)CCOC | < 50 nM | < 50 nM | < 50 nM | < 50 nM | < 50 nM |
| C=C(CN1CCN(C)CC1)C(=O)Nc1ccc(OC)c(Nc2ncc(Cl)c(Nc3ccccc3P(C)(C)=O)n2)c1 | < 50 nM | < 50 nM | < 50 nM | < 50 nM | < 50 nM |
| COc1cc(N2CCCC2)c(NC(=O)C#CCCN2CCN(C)CC2)cc1Nc1ncc(Cl)c(Nc2ccccc2P(C)(C)=O)n1 | < 50 nM | 101 to 250 nM | < 50 nM | < 50 nM | 101 to 250 nM |

| SMILES | IC50 [1] | IC50 [2] | IC50 (EGFR (human)) | IC50 [3] | IC50 [4] |
| --- | --- | --- | --- | --- | --- |
| C=CC(=O)Nc1cc(Nc2ncc(Cl)c(Nc3ccccc3P(C)(C)=O)n2)c(OC)cc1N1CCCN(C)CC1 | < 50 nM | < 50 nM | < 50 nM | < 50 nM | < 50 nM |
| COc1cc(F)c(NC(=O)C#CC(C)(C)N2CCCC2)cc1Nc1ncc(Cl)c(Nc2ccccc2P(C)(C)=O)n1 | < 50 nM | < 50 nM | < 50 nM | < 50 nM | < 50 nM |
| COc1ccc(NC(=O)/C=C/Cl)cc1Nc1ncc(Cl)c(Nc2ccccc2P(C)(C)=O)n1 | < 50 nM | < 50 nM | < 50 nM | < 50 nM | < 50 nM |
| COc1cc(F)c(NC(=O)C#CCN(C)C)cc1Nc1ncc(Cl)c(Nc2ccccc2P(C)(C)=O)n1 | < 50 nM | < 50 nM | < 50 nM | < 50 nM | < 50 nM |
| COc1ccc(NC(=O)C#CC(C)(C)N2CCCC2)cc1Nc1ncc(Cl)c(Nc2ccccc2P(C)(C)=O)n1 | < 50 nM | < 50 nM | < 50 nM | < 50 nM | < 50 nM |
| C=C(CN1CCN(C(C)C)CC1)C(=O)Nc1ccc(OC)c(Nc2ncc(Cl)c(Nc3ccccc3P(C)(C)=O)n2)c1 | < 50 nM | < 50 nM | 50 to 100 nM | < 50 nM | < 50 nM |
| C=CC(=O)Nc1cc(Nc2ncc(Cl)c(Nc3ccccc3P(C)(C)=O)n2)c(OC)cc1C#CCN(C)C(C)C | < 50 nM | < 50 nM | < 50 nM | < 50 nM | < 50 nM |
| C=C(CN1CCN(CCO)CC1)C(=O)Nc1ccc(OC)c(Nc2ncc(Cl)c(Nc3ccccc3P(C)(C)=O)n2)c1 | < 50 nM | < 50 nM | < 50 nM | < 50 nM | < 50 nM |
| C=C(CN1CCC(O)C1)C(=O)Nc1ccc(OC)c(Nc2ncc(Cl)c(Nc3ccccc3P(C)(C)=O)n2)c1 (stereo not given) | < 50 nM | < 50 nM | < 50 nM | < 50 nM | < 50 nM |
| C=CC(=O)Nc1cc(Nc2ncc(Cl)c(Nc3ccccc3P(C)(C)=O)n2)c(OC)cc1N1CCC(N(C)CCN(CC)CC)C1 (stereo not given) | < 50 nM | < 50 nM | < 50 nM | < 50 nM | 101 to 250 nM |
| C=CC(=O)Nc1cc(Nc2ncc(Cl)c(Nc3ccccc3P(C)(C)=O)n2)c(OC)cc1OC(COC)CN1CCC1 (stereo not given) | < 50 nM | < 50 nM | < 50 nM | < 50 nM | < 50 nM |
| CC#CC(=O)Nc1cc(Nc2ncc(Cl)c(Nc3ccccc3P(C)(C)=O)n2)c(OC)cc1N1CCC(N2CCN(C)CC2)CC1 | < 50 nM | < 50 nM | 50 to 100 nM | < 50 nM | < 50 nM |
| C=CC(=O)Nc1cc(Nc2ncc(Cl)c(Nc3ccccc3S(=O)(=O)C(C)C)n2)c(OC)cc1C#CCN(C)C | < 50 nM | < 50 nM | < 50 nM | < 50 nM | < 50 nM |
| C=CC(=O)Nc1cc(Nc2ncc(Cl)c(Nc3ccccc3P(C)(C)=O)n2)c(OC)cc1N1CCC(N2CCOCC2)C1 (stereo not given) | < 50 nM | < 50 nM | < 50 nM | < 50 nM | < 50 nM |
| C=CC(=O)Nc1cc(Nc2ncc(Cl)c(Nc3ccccc3P(C)(C)=O)n2)c(OC)cc1N1CCC(O)C1 (stereo not given) | < 50 nM | 50 to 100 nM | < 50 nM | < 50 nM | 101 to 250 nM |
| COc1cc(F)c(NC(=O)C#CCN2CCCC2)cc1Nc1ncc(Cl)c(Nc2ccccc2P(C)(C)=O)n1 | < 50 nM | < 50 nM | < 50 nM | < 50 nM | < 50 nM |
| C=CC(=O)Nc1ccc(OC)c(Nc2ncc(Cl)c(Nc3ccc(OCCOC)cc3P(C)(C)=O)n2)c1 | < 50 nM | < 50 nM | 50 to 100 nM | < 50 nM | 50 to 100 nM |
| C=CC(=O)Nc1ccc(Cl)c(Nc2ncc(Cl)c(Nc3ccccc3P(C)(C)=O)n2)c1 | < 50 nM | < 50 nM | < 50 nM | < 50 nM | < 50 nM |
| C=CC(=O)Nc1cc(Nc2ncc(Cl)c(Nc3ccccc3P(C)(C)=O)n2)c(OC)cc1OC1CCCN(C)C1 (stereo not given) | < 50 nM | < 50 nM | < 50 nM | < 50 nM | < 50 nM |
| C=CC(=O)Nc1cc(Nc2ncc(Cl)c(Nc3ccccc3P(C)(C)=O)n2)c(OC)cc1N1CCC(N2CCOCC2)CC1 | < 50 nM | < 50 nM | < 50 nM | < 50 nM | < 50 nM |
| Cc1ccc(NC(=O)CCl)cc1Nc1ncc(Cl)c(Nc2ccccc2P(C)(C)=O)n1 | < 50 nM | < 50 nM | < 50 nM | < 50 nM | < 50 nM |
| COCC1CCCN1CCC#CC(=O)Nc1cc(Nc2ncc(Cl)c(Nc3ccccc3P(C)(C)=O)n2)c(OC)cc1N1CCOCC1 (stereo not given) | < 50 nM | < 50 nM | < 50 nM | < 50 nM | < 50 nM |
